Like-named read-outs stand apart in the source and are kept apart here.
Key:
Type in all cases: cell-based
HIV-1 (IIIB) = assay: Antiviral assay in MT-4 cells; conditions: HIV-1 IIIB infected MT-4 cells, 5 days, Cell Titer Glo, read-out: MT4 EC50
Summary of the method: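 MT-4 cells infected with a 1:250 dilution of HIV-1 IIIB stock were incubated with serially diluted (1:3) compound for 5 days at 37 °C. Viability read by Cell Titer Glo luminescence; EC50 is the concentration giving 50% decrease in signal, from sigmoidal dose-response fits.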

MT-4 cells = assay: Cytotoxicity assay in MT-4 cells
Summary of the method: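 Uninfected MT-4 cells were incubated with 1:3 serially diluted compound in RPMI/10% FBS for 5 days at 37° C. Viability was read by CellTiter-Glo luminescence, with 10 μM puromycin as the baseline cytotoxicity control. Values are the concentration giving a 50% decrease in luminescence, from sigmoidal dose-response fits.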

pLai RLuc reporter virus = assay: HIV MT-4 serum shift antiviral reporter assay
Summary of the method: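 MT-4 cells pre-infected with pLai RLuc virus for 2 h at 37 °C, then incubated 72 h at 37 °C with compound in medium (RPMI, 10% FBS) with or without 50% human serum; Renilla luminescence read. EC50 from sigmoidal fit; serum shift = EC50(HS/CCM)/EC50(CCM).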

[1] = Human immunodeficiency virus 1, IIIB, MT4, 120 h
[2] = uninfected MT-4 cells, 5 days, Cell Titer Glo, read-out: CC50
[3] = Human immunodeficiency virus 1, 72 h, read-out: RLUC 50% HS (nM), HS/CCM: 50% human serum, 72 h, Renilla Glo
[4] = Human immunodeficiency virus 1, 72 h, read-out: RLUC CCM (nM), cell culture media (RPMI, 10% FBS), 72 h, Renilla Glo
[5] = HS/CCM: 50% human serum, 72 h, Renilla Glo, read-out: RLUC 50% HS
[6] = cell culture media (RPMI, 10% FBS), 72 h, Renilla Glo, read-out: RLUC CCM
[7] = read-out: RLUC 50% HS, HS/CCM: 50% human serum, 72 h, Renilla Glo
[8] = read-out: RLUC CCM, cell culture media (RPMI, 10% FBS), 72 h, Renilla Glo

SMILES	EC50 (HIV-1 (IIIB); [1]) [nM]	CC50 (MT-4 cells; [2]) [nM]	EC50 (pLai RLuc reporter virus; [3]) [nM]	EC50 (pLai RLuc reporter virus; [4]) [nM]	EC50 (HIV-1 (IIIB)) [nM]	EC50 (pLai RLuc reporter virus; [5]) [nM]	EC50 (pLai RLuc reporter virus; [6]) [nM]	EC50 (pLai RLuc reporter virus; [7]) [nM]	EC50 (pLai RLuc reporter virus; [8]) [nM]	CC50 (MT-4 cells) [nM]
CO[C@@H]1[C@H](OC)[C@H](C)N2CN([C@@H]1C)n1cc(C(=O)NCc3c(F)cc(F)cc3F)c(=O)c(O)c1C2=O [Example C61, (1S,2R,3S,4R,5S)-8-hydroxy-3,4-dimethoxy-2,5-dimethyl-7,9-dioxo-N-(2,4,6-trifluorobenzyl)-2,3,4,5,7,9-hexahydro-1,6-methanopyrido[1,2-b][1,2,5]triazonine-10-carboxamide]	2.8	50000	1.6	0.76	–	–	–	–	–	–
C[C@H]1C=CC(C)(C)N2CN1n1cc(C(=O)NCc3ccc(F)cc3F)c(=O)c(O)c1C2=O [Example C91, (1R,2S)—N-(2,4-difluorobenzyl)-8-hydroxy-2,5,5-trimethyl-7,9-dioxo-2,5,7,9-tetrahydro-1,6-methanopyrido[1,2-b][1,2,5]triazonine-10-carboxamide]	–	31000	–	–	1.9	195	0.67	–	–	–
C[C@H]1/C=C\C[C@H](C)N2CN1C(=O)c1c(O)c(=O)c(C(=O)NCc3c(F)cc(F)cc3F)cn12 [Example C19, (1R,2S,6S,Z)-9-hydroxy-2,6-dimethyl-8,10-dioxo-N-(2,4,6-trifluorobenzyl)-3,6,8,10-tetrahydro-2H-1,7-methanopyrido[1,2-b][1,2,5]triazecine-11-carboxamide]	–	10200	–	–	1.1	60.3	0.41	–	–	–
C[C@@H]1CC(F)(F)[C@H](C)N2CN1n1cc(C(=O)NCc3c(F)cc(F)cc3F)c(=O)c(O)c1C2=O [Example C35, (1S,2R,5S)-4,4-difluoro-8-hydroxy-2,5-dimethyl-7,9-dioxo-N-(2,4,6-trifluorobenzyl)-2,3,4,5,7,9-hexahydro-1,6-methanopyrido[1,2-b][1,2,5]triazonine-10-carboxamide]	–	29900	–	–	1.6	188	1.3	–	–	–
C[C@@H]1CCC[C@H](C)N2CN1n1cc(C(=O)NCc3c(F)cc(F)cc3F)c(=O)c(O)c1C2=O [Example C8, (1S,2R,6S)-9-hydroxy-2,6-dimethyl-8,10-dioxo-N-(2,4,6-trifluorobenzyl)-3,4,5,6,8,10-hexahydro-2H-1,7-methanopyrido[1,2-b][1,2,5]triazecine-11-carboxamide]	1.8	4720	–	–	–	–	–	16.4	0.55	–
C[C@H]1CC[C@H](C)N2CN1C(=O)c1c(O)c(=O)c(C(=O)NCc3c(F)cc(F)cc3F)cn12 [Example C66, (1R,2S,5S)-8-hydroxy-2,5-dimethyl-7,9-dioxo-N-(2,4,6-trifluorobenzyl)-2,3,4,5,7,9-hexahydro-1,6-methanopyrido[1,2-b][1,2,5]triazonine-10-carboxamide]	–	10400	–	–	1.4	–	–	179	0.5	–
C[C@@H]1CC[C@H](CF)N2CN1n1cc(C(=O)NCc3c(F)cc(F)cc3F)c(=O)c(O)c1C2=O [Example C51, (1S,2R,5R)-5-(fluoromethyl)-8-hydroxy-2-methyl-7,9-dioxo-N-(2,4,6-trifluorobenzyl)-2,3,4,5,7,9-hexahydro-1,6-methanopyrido[1,2-b][1,2,5]triazonine-10-carboxamide]	–	–	–	–	1.3	408	2.3	–	–	9810
O=C(NCc1c(F)cc(F)cc1F)c1cn2c(c(O)c1=O)C(=O)N1CCCCN2C1 [Example C108, (1R)-8-hydroxy-7,9-dioxo-N-(2,4,6-trifluorobenzyl)-2,3,4,5,7,9-hexahydro-1,6-methanopyrido[1,2-b][1,2,5]triazonine-10-carboxamide]	–	22900	–	–	3.3	208	0.98	–	–	–
O=C(NCc1c(F)cc(F)cc1F)c1cn2c(c(O)c1=O)C(=O)N1Cc3ccc(F)cc3CN2C1 [Example C4, (6S)-9-fluoro-1-hydroxy-2,14-dioxo-N-(2,4,6-trifluorobenzyl)-2,7,12,14-tetrahydro-6,13-methanobenzo[g]pyrido[1,2-b][1,2,5]triazonine-3-carboxamide]	–	12000	–	–	1.2	6.08	0.54	–	–	–
CO[C@@H]1C=C[C@H](C)N2CN1n1cc(C(=O)NCc3c(F)cc(F)cc3F)c(=O)c(O)c1C2=O [Example C46, (1R,2R,5S)-8-hydroxy-2-methoxy-5-methyl-7,9-dioxo-N-(2,4,6-trifluorobenzyl)-2,5,7,9-tetrahydro-1,6-methanopyrido[1,2-b][1,2,5]triazonine-10-carboxamide]	–	27000	–	–	1.6	468	0.44	–	–	–
C[C@@H]1[C@H]2C[C@H]2[C@H](C)N2CN1n1cc(C(=O)NCc3c(F)cc(F)cc3F)c(=O)c(O)c1C2=O [Example C89, (1aS,2R,3R,11S,11aR)-8-hydroxy-2,11-dimethyl-7,9-dioxo-N-(2,4,6-trifluorobenzyl)-1a,2,7,9,11,11a-hexahydro-1H-3,10-methanocyclopropa[g]pyrido[1,2-b][1,2,5]triazonine-6-carboxamide]	–	37200	–	–	1.1	36.5	1.09	–	–	–
C[C@H]1CC[C@@H](C(F)F)N2CN1C(=O)c1c(O)c(=O)c(C(=O)NCc3c(F)cc(F)cc3F)cn12 [Example C78, (1S,2S,5S)-2-(difluoromethyl)-8-hydroxy-5-methyl-7,9-dioxo-N-(2,4,6-trifluorobenzyl)-2,3,4,5,7,9-hexahydro-1,6-methanopyrido[1,2-b][1,2,5]triazonine-10-carboxamide]	–	13700	–	–	1.6	1040	0.42	–	–	–
C[C@H]1C=C[C@]2(CCOC2)N2CN1C(=O)c1c(O)c(=O)c(C(=O)NCc3c(F)cc(F)cc3F)cn12 [Example C84, (1′S,3S,5′S)-8′-hydroxy-5′-methyl-7′,9′-dioxo-N-(2,4,6-trifluorobenzyl)-4,5,7′,9′-tetrahydro-2H,5′H-spiro[furan-3,2′-[1,6]methanopyrido[1,2-b][1,2,5]triazonine]-10′-carboxamide]	–	20500	–	–	0.6	24.9	0.26	–	–	–
C[C@@H]1C/C=C\CN2CN1n1cc(C(=O)NCc3ccc(F)cc3F)c(=O)c(O)c1C2=O [Example C11, (1S,2R,Z)—N-(2,4-difluorobenzyl)-9-hydroxy-2-methyl-8,10-dioxo-3,6,8,10-tetrahydro-2H-1,7-methanopyrido[1,2-b][1,2,5]triazecine-11-carboxamide]	–	9930	–	–	1.1	7.32	0.27	–	–	–
C[C@H]1CCC(C)(C)N2CN1n1cc(C(=O)NCc3ccc(F)cc3F)c(=O)c(O)c1C2=O [Example C95, (1S,2S)—N-(2,4-difluorobenzyl)-8-hydroxy-2,5,5-trimethyl-7,9-dioxo-2,3,4,5,7,9-hexahydro-1,6-methanopyrido[1,2-b][1,2,5]triazonine-10-carboxamide]	12.3	50000	461	2.52	–	–	–	–	–	–
C[C@@H]1C/C=C\CN2CN1n1cc(C(=O)NCc3ccc(F)cc3F)c(=O)c(O)c1C2=O [Example C10, (1R,2R,Z)—N-(2,4-difluorobenzyl)-9-hydroxy-2-methyl-8,10-dioxo-3,6,8,10-tetrahydro-2H-1,7-methanopyrido[1,2-b][1,2,5]triazecine-11-carboxamide]	–	7570	–	–	1.8	339	0.4	–	–	–
C[C@@H]1CC[C@H](CF)N2CN1n1cc(C(=O)NCc3ccc(F)cc3F)c(=O)c(O)c1C2=O [Example C49b, (1S,10R,13R)—N-[(2,4-difluorophenyl)methyl]-10-(fluoromethyl)-6-hydroxy-13-methyl-5,8-dioxo-1,2,9-triazatricyclo[7.4.1.02,7]tetradeca-3,6-diene-4-carboxamide]	–	8930	–	–	1.9	462	1	–	–	–
C[C@@H]1C=C[C@H](CF)N2CN1n1cc(C(=O)NCc3ccc(F)cc3F)c(=O)c(O)c1C2=O [Example C49a, (1S,10R,13R)—N-[(2,4-difluorophenyl)methyl]-10-(fluoromethyl)-6-hydroxy-13-methyl-5,8-dioxo-1,2,9-triazatricyclo[7.4.1.02,7]tetradeca-3,6,11-triene-4-carboxamide]	–	11300	–	–	1.2	140	0.64	–	–	–
C[C@@H]1C=C[C@@H](C)N2CN1C(=O)c1c(O)c(=O)c(C(=O)NCc3ccc(F)cc3F)cn12 [Example C68, (1R,2R,5R)—N-(2,4-difluorobenzyl)-8-hydroxy-2,5-dimethyl-7,9-dioxo-2,5,7,9-tetrahydro-1,6-methanopyrido[1,2-b][1,2,5]triazonine-10-carboxamide]	1.6	17300	–	0.82	–	–	–	291	–	–
